Legend:
Goto Kokizaki II rats = experiment: insulin secretion stimulation in Goto Kokizaki II rats (ELISA); format: in vivo, rat; conditions: 5 μg subcutaneous, 0-45 minutes
Protocol: Six-month-old (470 g body weight) Goto Kokizaki II rats were taken for the operative procedure. The test animals were administrated by subcutaneous injection of Exendin 4 polypeptides in a dose of 5 μg, while the animals of control group only achieved physiological saline solution. 20 μl of blood samples were obtained from fasted animals at 0, 3, 5, 10, 15, 30 and 45 minutes time points respectively after administration of the test substance.

diabetic animal models = experiment: hypoglycemic activity across the diabetic animal models of examples 3-7 (overall statement); format: in vivo; conditions: assays of examples 3, 4, 5, 6, 7
Source text: The effect of hypoglycemic levels of the polypeptide in the present invention is validated with the routine methods in the art, such as the experiments of cell biology, the animal experiments, etc. In embodiments of the present invention, in order to overcome the limitations of the experiments in vitro, preferably employed diabetic animal models to assay the effect of hypoglycemic levels, such as db/db II diabetic mice, Goto-Kokizaki (GK) II type rat, diabetic KK mice, alloxan induced diabetic mice. These animal experiments indicate the Exendin 4 polypeptide fragment represented by formula (I) in the present invention, has a continuous effect of sustaining hypoglycemic activity in vivo and can be used for the diabetes treatment. KK type II diabetic mice (purchased from Shanghai Laboratory Animal Center, Chinese Academy of Sciences, China) with 50 g body weight are subjected to fasting for 2 hours, and are divided into four groups. Two groups are injected with 2 μg Exendin 4, the other two groups are injected with 2 μg Exendin 4 polypeptide fragment presented in the invention. Twenty microliter blood samples are obtained from fasted animals at 0, 0.5, 1, 2, 3, 4, 5 and 6 h time points respectively after administration of the test substance. The sustained hypoglycemic activity is analyzed by using the blood sugar assay kit (purchased from Shanghai Institute of Biological Products, China). The corresponding results of the Exendin 4 polypeptide fragments having the sequences of SEQ ID NO. 1, SEQ ID NO. 2, SEQ ID NO. 3, SEQ ID NO. 4, SEQ ID NO. 5, SEQ ID NO. 6, SEQ ID NO. 7, SEQ ID NO. 8, SEQ ID NO. 9, SEQ ID NO. 10, SEQ ID NO. 11 and SEQ ID NO. 12 are shown in FIG. 7, FIG. 2, FIG. 12, FIG. 17, FIG. 22, FIG. 27, FIG. 32, FIG. 37, FIG. 42, FIG. 47, FIG. 52 and FIG. 57 respectively. The db/db II diabetic mice (purchased from Shanghai Laboratory Animal Center, Chinese Academy of Sciences and Yangzhou University, China) with 50 g body weight are subjected to fasting for 2 hours, the test animals were administrated by subcutaneous injection of Exendin 4 polypeptide fragment in a dose of 2 μg. 20 μl blood samples were obtained from fasted animals at 0, 0.5, 1 and 2 hours time points respectively after administration of the test substance. The sustained hypoglycemic activity is analyzed by using the blood sugar assay kit (purchased from Shanghai Institute of Biological Products, China). The corresponding results of the Exendin 4 polypeptide fragments having the sequences of SEQ ID NO. 1, SEQ ID NO. 2, SEQ ID NO. 3, SEQ ID NO. 4, SEQ ID NO. 5, SEQ ID NO. 6, SEQ ID NO. 7, SEQ ID NO. 8, SEQ ID NO. 9, SEQ ID NO. 10, SEQ ID NO. 11 and SEQ ID NO. 12 are shown in FIG. 8, FIG. 3, FIG. 13, FIG. 18, FIG. 23, FIG. 28, FIG. 33, FIG. 38, FIG. 43, FIG. 48, FIG. 53, FIG. 58 respectively. Five-month-old (body weight 470 g) Goto Kokizaki diabetic rat (purchased from Shanghai Laboratory Animal Center, Chinese Academy of Sciences, China) are taken for the operative procedure. After subjecting to fasting for 2 hours, the test animals were administrated by intraperitoneal injection of 20% glucose in a dose of 1 ml and by subcutaneous injection of Exendin 4 polypeptide fragment in a dose of 5 μg. The control group received only glucose. Twenty microliter blood samples were obtained from fasted animals at 0, 0.5, 1 and 2 hours time points respectively after administration of the test substance. The sustained hypoglycemic activity is determined by using the blood sugar assay kit (purchased from Shanghai Institute of Biological Products, China). The curve 1 indicates the control group. The curve 2 indicates the administration group. Eight-week-old (20 g body weight) mice are taken for the operative procedure. Experimental diabetes in mice was induced by (16 mg/ml) 0.1 ml alloxan by tail vein injection. Animals are divided into five groups. 48 hours later, 2 μg Exendin 4 polypeptide fragment was injected. […]

Substance | insulin secretion of the test group (Goto Kokizaki II rats) | hypoglycemic activity (in words) (diabetic animal models)
SEQ ID NO. 66: solid phase Exendin 4 polypeptide variant of example 8; sequence not printed in the text (HGEGTYTSNLSKQIEEEAVKLFIEWLKNGGP; Exendin 4 polypeptide fragment) | recovered | significant hypoglycemic activity
SEQ ID NO. 67: solid phase Exendin 4 polypeptide variant of example 8; sequence not printed in the text (HGEGTFTSNLSKQIEEEAVKLFIEWLKNGP; Exendin 4 polypeptide fragment) | recovered | significant hypoglycemic activity
SEQ ID NO. 71: solid phase Exendin 4 polypeptide variant of example 8; sequence not printed in the text (HGEGTFTSNLSKQLEEEAVKLFIEWLKNGP; Exendin 4 polypeptide fragment) | recovered | significant hypoglycemic activity
SEQ ID NO. 69: solid phase Exendin 4 polypeptide variant of example 8; sequence not printed in the text (HGEGTFTSNLSKQLEEEAVKLFIEWLKNGGP; Exendin 4 polypeptide fragment) | recovered | significant hypoglycemic activity
SEQ ID NO. 65: solid phase Exendin 4 polypeptide variant of example 8; sequence not printed in the text (HGEGTFTSNLSKQIEEEAVKLFIEWLKNGGP; Exendin 4 polypeptide fragment) | recovered | significant hypoglycemic activity
SEQ ID NO. 68: solid phase Exendin 4 polypeptide variant of example 8; sequence not printed in the text (HGEGTYTSNLSKQIEEEAVKLFIEWLKNGP; Exendin 4 polypeptide fragment) | recovered | significant hypoglycemic activity
SEQ ID NO. 70: solid phase Exendin 4 polypeptide variant of example 8; sequence not printed in the text (HGEGTYTSNLSKQLEEEAVKLFIEWLKNGGP; Exendin 4 polypeptide fragment) | recovered | significant hypoglycemic activity
SEQ ID NO. 72: solid phase Exendin 4 polypeptide variant of example 8; sequence not printed in the text (HGEGTYTSNLSKQLEEEAVKLFIEWLKNGP; Exendin 4 polypeptide fragment) | recovered | significant hypoglycemic activity
SEQ ID NO. 62: solid phase Exendin 4 polypeptide variant of example 8; sequence not printed in the text (HGEGTYTSNLSKQMEEEAVKLFIEWLKNGGP; Exendin 4 polypeptide fragment) | recovered | significant hypoglycemic activity
SEQ ID NO. 64: solid phase Exendin 4 polypeptide variant of example 8; sequence not printed in the text (HGEGTYTSNLSKQMEEEAVKLFIEWLKNGP; Exendin 4 polypeptide fragment) | recovered | significant hypoglycemic activity
